Data set [1] concerns the target Voltage-gated inwardly rectifying potassium channel KCNH2 (Homo sapiens, UniProt Q12809).
Description: Inhibition of human ERG expressed in HEK293 cells by electrophysiology assay
Data set [2] has as its target T1, Adrenergic receptor alpha-1 (Rattus norvegicus, UniProt P15823+P23944+P43140).
T1 sequence (P15823 whole entry): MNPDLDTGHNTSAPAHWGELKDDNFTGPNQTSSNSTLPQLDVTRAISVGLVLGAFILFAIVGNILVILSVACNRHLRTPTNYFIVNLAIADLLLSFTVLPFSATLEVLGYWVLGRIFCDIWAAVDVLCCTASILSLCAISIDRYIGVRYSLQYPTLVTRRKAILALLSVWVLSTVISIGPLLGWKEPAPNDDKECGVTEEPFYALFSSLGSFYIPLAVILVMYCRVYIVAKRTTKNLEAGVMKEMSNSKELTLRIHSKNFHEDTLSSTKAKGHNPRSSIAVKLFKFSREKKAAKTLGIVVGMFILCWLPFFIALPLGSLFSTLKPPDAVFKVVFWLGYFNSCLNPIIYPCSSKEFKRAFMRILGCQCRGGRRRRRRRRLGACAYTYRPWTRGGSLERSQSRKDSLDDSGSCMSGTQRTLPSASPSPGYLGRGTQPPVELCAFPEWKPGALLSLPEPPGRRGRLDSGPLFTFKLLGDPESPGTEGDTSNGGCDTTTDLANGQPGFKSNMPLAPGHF
T1 sequence (P23944 whole entry): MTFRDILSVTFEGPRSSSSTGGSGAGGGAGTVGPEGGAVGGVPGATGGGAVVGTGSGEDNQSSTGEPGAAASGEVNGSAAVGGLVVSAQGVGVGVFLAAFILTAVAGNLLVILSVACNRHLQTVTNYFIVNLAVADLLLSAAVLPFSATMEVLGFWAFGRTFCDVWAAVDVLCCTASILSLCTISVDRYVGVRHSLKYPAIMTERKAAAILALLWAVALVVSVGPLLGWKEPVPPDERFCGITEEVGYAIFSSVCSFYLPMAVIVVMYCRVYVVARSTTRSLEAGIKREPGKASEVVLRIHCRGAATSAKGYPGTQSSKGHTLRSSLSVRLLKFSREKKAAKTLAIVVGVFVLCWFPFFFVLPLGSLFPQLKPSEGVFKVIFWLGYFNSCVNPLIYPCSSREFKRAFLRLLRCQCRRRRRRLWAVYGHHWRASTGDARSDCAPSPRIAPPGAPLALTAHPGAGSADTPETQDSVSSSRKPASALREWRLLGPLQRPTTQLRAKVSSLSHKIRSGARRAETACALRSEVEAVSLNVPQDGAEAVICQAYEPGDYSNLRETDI
T1 sequence (P43140 whole entry): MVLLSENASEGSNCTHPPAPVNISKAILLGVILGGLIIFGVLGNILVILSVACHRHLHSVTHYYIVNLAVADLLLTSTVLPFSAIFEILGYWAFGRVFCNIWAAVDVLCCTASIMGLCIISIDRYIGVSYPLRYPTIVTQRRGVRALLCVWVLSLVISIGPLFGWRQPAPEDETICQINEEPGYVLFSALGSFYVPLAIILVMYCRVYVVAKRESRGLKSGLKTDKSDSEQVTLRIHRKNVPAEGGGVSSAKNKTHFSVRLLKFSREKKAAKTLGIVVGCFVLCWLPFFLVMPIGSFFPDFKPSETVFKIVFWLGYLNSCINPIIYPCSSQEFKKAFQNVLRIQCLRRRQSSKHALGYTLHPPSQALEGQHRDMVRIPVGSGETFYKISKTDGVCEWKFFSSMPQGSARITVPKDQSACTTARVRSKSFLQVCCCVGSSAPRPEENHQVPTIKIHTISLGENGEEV
Description: Displacement of [3H]prazosin from alpha-1 adrenergic receptor in rat cerebral cortex after 60 mins by liquid scintillation counting analysis

Data set [3] can be described thus: Oral bioavailability in rat at 12 mg/kg by HPLC-MS analysis. In kind it is ADME, organism-based. The settings on record: in vivo.
Data set [4] in a line: AUC (0 to infinity) in rat at 5 mg/kg, iv by HPLC-MS analysis. In kind it is ADME, organism-based. The settings on record: plasma. Also on record: time infinity, dose 5 mg/kg, route intravenous.
The nature of data set [5]: AUC (0 to 12 hrs) in rat at 12 mg/kg, po by HPLC-MS analysis. The data set is classed as ADME, organism-based. Also on record: time < 12 hr, dose 12 mg/kg, route oral. The settings on record: plasma.
A short description of data set [6]: Half life in rat at 12 mg/kg, po by HPLC-MS analysis. The data set is classed as ADME, organism-based. Also on record: dose 12 mg/kg, route oral. The settings on record: in vivo.
Data set [7] is described as follows: Cmax in rat at 12 mg/kg, po by HPLC-MS analysis. The data set is classed as ADME, organism-based. Also on record: dose 12 mg/kg, route oral. The settings on record: in vivo.
Data set [8] is described as follows: Tmax in rat at 12 mg/kg, po by HPLC-MS analysis. The settings on record: in vivo. Also on record: dose 12 mg/kg, route oral. The data set is classed as ADME, organism-based.
Data set [9] concerns Mus musculus. Nature of the data set: Toxicity in mouse assessed as effect on serum prolactin level at 0.3 to 2.7 mg/kg, po for 28 days measured 180 mins after last treatment by enzyme immunoassay. The data set is classed as organism-based. Also noted: dose 0.3-2.7 mg/kg, route oral. The settings on record: in vivo, 3 h.
The subject of data set [10] is Mus musculus. Nature of the data set: Toxicity in mouse assessed as weight gain at 0.3 to 2.7 mg/kg, po for 28 days. In kind it is organism-based. Also noted: dose 0.3-2.7 mg/kg, route oral. The conditions noted are these: in vivo, 672 h.
The nature of data set [11]: Acute toxicity in mouse assessed as mortality after 24 hrs. The data set is classed as organism-based. The conditions noted are these: in vivo.
For data set [12], the target named is T2, 5-hydroxytryptamine receptor 2A (Homo sapiens, UniProt P28223). The data set is described as follows: Antagonist activity at 5HT2A receptor (unknown origin) expressed in CHOK1 cells coexpressing Galpha15 assessed as inhibition of agonist-induced response at 10 uM incubated for 60 mins in incubator followed by 15 mins at room temperature by FLIPR assay relative to control. The data set is classed as cell-based. The conditions noted are these: CHO-K1.

Data set [13] deals with T3, D(2) dopamine receptor (Homo sapiens, UniProt P14416). Nature of the data set: Antagonist activity at dopamine D2 receptor (unknown origin) expressed in CHOK1 cells coexpressing Galpha15 assessed as inhibition of agonist-induced response at 10 uM incubated for 60 mins in incubator followed by 15 mins at room temperature by FLIPR assay relative to control. In kind it is cell-based. The settings on record: CHO-K1.

Data set [14] has as its target T3, D(2) dopamine receptor. The data set is described as follows: Agonist activity at dopamine D2 receptor (unknown origin) expressed in CHOK1 cells coexpressing Galpha15 at 10 uM by FLIPR assay relative to control. The conditions noted are these: CHO-K1. The data set is classed as cell-based.
For data set [15], the system named is Rattus norvegicus. Nature of the data set: Toxicity in rat assessed as QT interval prolongation/cardiac liability at 5 to 60 mg/kg, po by electrophysiology assay. The settings on record: in vivo. Also noted: dose 5-60 mg/kg, route oral. The data set is classed as organism-based.
Data set [16] has as its target T2, 5-hydroxytryptamine receptor 2A.
Description: Antagonist activity at 5HT2A receptor (unknown origin) expressed in CHOK1 cells coexpressing Galpha15 assessed as inhibition of agonist-induced response incubated for 60 mins in incubator followed by 15 mins at room temperature by FLIPR assay
The target of data set [17] is D(3) dopamine receptor (Homo sapiens, UniProt P35462).
The target of data set [18] is T3, D(2) dopamine receptor.
Data set [19] in a line: in vivo. The settings on record: mouse, po.
Data set [20] is described as follows: in vivo. The conditions noted are these: mouse, po. The source holds these as a separate data set.
Description: Therapeutic Index, ratio of ED50 for catalepsy in mouse to ED50 for antipsychotic activity in po dosed mouse assessed as reduction in apomorphine-induced climbing behavior
The species entered for data set [21] is Mus musculus. The data set is described as follows: animal or person. The settings on record: po.
Description: (§1) Antipsychotic activity in po dosed mouse assessed as reduction in apomorphine-induced climbing behavior administered for 30 mins prior to apomorphine-challenge measured at 10 to 30 mins post-dose
In data set [22] the test system is Mus musculus.
The test system of data set [23] is Mus musculus. This is another data set of the same source.
Description: as §1

By IC50 is commonly meant the concentration that inhibits the measured activity by half. Read a high IC50 as a need for much substance. For orientation: Ki means the dissociation constant of the complex between target and ligand, obtained from inhibition or displacement. A word on the bioavailability: it is dose-corrected exposure relative to a reference, in per cent. Low readings indicate poor availability, high ones good availability. For orientation: AUC(0-inf) means total exposure, with the tail of the curve extrapolated. The low end stands for low exposure, the high end for high exposure. A word on the AUC(0-t): it is the area under the concentration-time curve up to a stated or last time point. A word on the half-life: it is how long it takes for the measured level to halve. Read a high half-life as slow decline. By Cmax is commonly meant the highest concentration seen after dosing. The term Tmax denotes the time at which the peak concentration occurs. As usually defined, the LD50 is the dose expected to kill half of the subjects tested. As usually defined, the inhibition is the relative decrease from the control value, in per cent. The ED50 is the midpoint of the dose-response relation.

T3 sequence (P14416 whole entry): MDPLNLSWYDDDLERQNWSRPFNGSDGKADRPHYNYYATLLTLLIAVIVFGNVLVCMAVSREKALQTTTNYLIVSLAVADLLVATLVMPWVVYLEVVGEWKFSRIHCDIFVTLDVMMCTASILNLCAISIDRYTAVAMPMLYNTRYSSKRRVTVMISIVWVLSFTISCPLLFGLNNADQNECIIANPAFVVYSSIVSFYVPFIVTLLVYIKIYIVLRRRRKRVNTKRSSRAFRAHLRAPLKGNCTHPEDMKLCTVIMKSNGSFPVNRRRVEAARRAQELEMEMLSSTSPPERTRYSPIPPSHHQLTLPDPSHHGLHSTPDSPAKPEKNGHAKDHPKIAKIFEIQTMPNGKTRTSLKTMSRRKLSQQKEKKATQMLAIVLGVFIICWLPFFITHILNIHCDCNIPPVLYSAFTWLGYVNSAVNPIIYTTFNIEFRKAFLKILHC
Sequence of Voltage-gated inwardly rectifying potassium channel KCNH2 (Q12809 whole entry): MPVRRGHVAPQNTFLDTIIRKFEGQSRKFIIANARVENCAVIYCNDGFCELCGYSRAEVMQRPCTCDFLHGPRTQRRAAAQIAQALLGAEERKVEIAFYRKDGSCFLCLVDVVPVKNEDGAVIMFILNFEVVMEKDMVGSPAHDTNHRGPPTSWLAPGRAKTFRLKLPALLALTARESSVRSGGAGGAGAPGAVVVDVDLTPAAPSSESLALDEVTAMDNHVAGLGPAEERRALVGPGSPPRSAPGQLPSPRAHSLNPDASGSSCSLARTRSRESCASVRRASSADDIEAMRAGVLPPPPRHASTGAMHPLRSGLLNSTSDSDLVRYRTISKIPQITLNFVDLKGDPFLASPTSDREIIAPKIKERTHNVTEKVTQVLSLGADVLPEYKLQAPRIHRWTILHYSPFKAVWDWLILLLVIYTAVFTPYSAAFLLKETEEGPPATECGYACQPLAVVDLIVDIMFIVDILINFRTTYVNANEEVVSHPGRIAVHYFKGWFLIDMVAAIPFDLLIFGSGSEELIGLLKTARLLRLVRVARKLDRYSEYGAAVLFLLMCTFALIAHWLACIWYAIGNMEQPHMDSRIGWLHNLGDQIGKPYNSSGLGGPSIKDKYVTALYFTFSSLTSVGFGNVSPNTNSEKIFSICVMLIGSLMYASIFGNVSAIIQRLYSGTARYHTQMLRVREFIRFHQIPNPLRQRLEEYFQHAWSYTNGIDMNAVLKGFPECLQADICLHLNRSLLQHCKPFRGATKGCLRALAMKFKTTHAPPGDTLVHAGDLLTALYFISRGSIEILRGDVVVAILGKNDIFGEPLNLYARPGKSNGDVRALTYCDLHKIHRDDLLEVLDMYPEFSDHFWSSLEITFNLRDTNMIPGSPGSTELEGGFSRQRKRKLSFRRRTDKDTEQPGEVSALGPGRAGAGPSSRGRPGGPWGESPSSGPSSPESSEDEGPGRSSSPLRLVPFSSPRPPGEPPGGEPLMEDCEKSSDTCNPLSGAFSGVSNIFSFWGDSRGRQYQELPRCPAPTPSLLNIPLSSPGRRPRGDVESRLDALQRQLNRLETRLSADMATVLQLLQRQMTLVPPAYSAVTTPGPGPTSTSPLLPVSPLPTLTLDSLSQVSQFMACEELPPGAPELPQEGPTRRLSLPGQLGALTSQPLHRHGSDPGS
T2 sequence (P28223 whole entry): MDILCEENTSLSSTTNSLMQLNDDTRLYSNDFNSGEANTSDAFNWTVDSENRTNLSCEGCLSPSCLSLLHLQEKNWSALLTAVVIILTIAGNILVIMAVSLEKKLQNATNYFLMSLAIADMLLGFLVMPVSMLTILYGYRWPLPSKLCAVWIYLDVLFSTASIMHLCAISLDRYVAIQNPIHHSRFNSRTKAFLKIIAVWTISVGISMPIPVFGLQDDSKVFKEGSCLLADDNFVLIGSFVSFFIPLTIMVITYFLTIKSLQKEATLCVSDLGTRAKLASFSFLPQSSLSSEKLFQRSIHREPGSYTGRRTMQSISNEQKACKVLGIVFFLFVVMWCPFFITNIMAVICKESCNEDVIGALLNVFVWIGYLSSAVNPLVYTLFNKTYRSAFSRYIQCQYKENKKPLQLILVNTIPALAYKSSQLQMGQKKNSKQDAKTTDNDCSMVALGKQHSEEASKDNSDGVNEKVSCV
Sequence of D(3) dopamine receptor (P35462 whole entry): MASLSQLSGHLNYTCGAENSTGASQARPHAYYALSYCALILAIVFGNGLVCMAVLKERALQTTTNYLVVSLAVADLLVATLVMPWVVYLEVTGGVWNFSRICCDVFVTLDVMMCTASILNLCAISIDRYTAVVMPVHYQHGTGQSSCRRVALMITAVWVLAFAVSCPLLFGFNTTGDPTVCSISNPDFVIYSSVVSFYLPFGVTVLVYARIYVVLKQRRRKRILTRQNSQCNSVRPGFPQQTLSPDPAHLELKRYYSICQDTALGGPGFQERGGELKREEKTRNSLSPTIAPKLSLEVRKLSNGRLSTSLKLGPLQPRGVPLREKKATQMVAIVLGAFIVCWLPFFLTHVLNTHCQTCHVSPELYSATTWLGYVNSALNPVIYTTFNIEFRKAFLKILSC

In turn, `Cc1cc(=O)oc2c(C)c(OCCCCN3CCC(c4noc5cc(F)ccc45)CC3)ccc12` registered an IC50 in data set [1] of 226 nM. In addition, the Ki in data set [2] is given as 121.2 nM.
For `COc1ccccc1N1CCN(CCCCOc2ccc3c(C)cc(=O)oc3c2)CC1`, in [1], half-maximal inhibition (IC50) was put at 31 nM. In data set [2], this compound registered a Ki of 6.1 nM.
`Cc1cc(=O)oc2c(Cl)c(OCCCCN3CCC(c4noc5cc(F)ccc45)CC3)ccc12`: the bioavailability in [3] worked out at 32%. For the same compound, the AUC(0-inf) in data set [4] was determined as 914 ng·h/mL. In addition, the AUC(0-t) at 12 h in data set [5] was 644 ng·h/mL. This compound showed a half-life in data set [6] of 6.7 h. Besides, the Cmax in data set [7] turned out to be 72.1 ng/mL. Also, in data set [8], the Tmax amounted to 3 h. The Activity entry was “Non-toxic” in data set [9]; “Non-toxic” in data set [10]; 2% in data set [14]; “Non-toxic” in data set [15]; “Dose-dependent effect” in [22]; “Dose-dependent effect” in [23]. In addition, the LD50 at 24 h in data set [11] was more than 2000 mg/kg. Besides, the values for the inhibition in data set [12] and in data set [13] were 99.1% and 101%, respectively. Besides, the IC50 was 39.2 nM in data set [16], 24.8 nM in data set [17], 26.3 nM in data set [18] and 1590 nM in [1]. Moreover, in data set [2], the Ki stood at 2569.2 nM. Also, the values for the selectivity ratio in [19] and in data set [20] were 221 and 215, respectively. This compound also registered an ED50 in [21] of 0.14 mg/kg.
Regarding `Cc1cc(=O)oc2cc(OCCCCN3CCC(c4noc5cc(F)ccc45)CC3)ccc12`, it took 159 nM to reach half-maximal inhibition in [1] (IC50). The compound further showed an inhibitory constant (Ki) in data set [2] of 15.8 nM.
For `Cc1c(C)c2ccc(OCCCCN3CCC(c4noc5cc(F)ccc45)CC3)cc2oc1=O`, in data set [1], the midpoint of inhibition, the IC50, lay at 195 nM. Further, the Ki in data set [2] is listed as 139.2 nM.
In data set [2], `O=c1cc(-c2ccccc2)c2ccc(OCCCCN3CCC(c4noc5cc(F)ccc45)CC3)cc2o1` returned a Ki of more than 10000 nM.
